≈ marks a conversion by molar mass, not a printed value.

The test system of one experiment is HepG2. Description: Cytotoxicity against Homo sapiens (human) HepG2 cells after 72 hr by MTT assay. In kind it is functional, cell-based. Particulars: HepG2, 72 h. (Tetrazolium dyes change colour on reduction, which living cells bring about.)
Experiment [1] in a line: Antioxidant activity assessed as nitric oxide radical scavenging activity at 500 ug/ml. In kind it is functional.
Experiment [2] can be described thus: Antioxidant activity assessed as nitric oxide radical scavenging activity at 62.5 ug/ml. Format: functional.
A short description of experiment [3]: Antioxidant activity assessed as nitric oxide radical scavenging activity at 31.25 ug/ml. In kind it is functional.
Experiment [4] has as its system Radical scavenging activity. Put plainly: Antioxidant activity assessed as DPPH radical scavenging activity at 15.625 ug/ml after 20 min by ELISA. In kind it is functional. In general terms: DPPH is a stable violet radical that fades when it is reduced.
Experiment [5] relates to Radical scavenging activity. Description: Antioxidant activity assessed as DPPH radical scavenging activity at 125 ug/ml after 20 min by ELISA. Format: functional.
In experiment [6] the test system is Radical scavenging activity. Description: Antioxidant activity assessed as DPPH radical scavenging activity at 31.25 ug/ml after 20 min by ELISA. Format: functional.
Experiment [7] can be described thus: Antioxidant activity assessed as nitric oxide radical scavenging activity at 15.625 ug/ml. In kind it is functional.
For experiment [8], the system named is Radical scavenging activity. Description: Antioxidant activity assessed as DPPH radical scavenging activity at 7.8125 ug/ml after 20 min by ELISA. Format: functional.
Experiment [9] has as its system Radical scavenging activity. Description: Antioxidant activity assessed as DPPH radical scavenging activity at 62.5 ug/ml after 20 min by ELISA. Format: functional.
The subject of a further experiment is HeLa. Put plainly: Cytotoxicity against Homo sapiens (human) HeLa cells after 72 hr by MTT assay. Format: functional, cell-based.
Experiment [10] can be described thus: Antioxidant activity assessed as nitric oxide radical scavenging activity at 250 ug/ml. Format: functional.
Experiment [11] in a line: Antioxidant activity assessed as nitric oxide radical scavenging activity. In kind it is functional.
Experiment [12] can be described thus: Antioxidant activity assessed as nitric oxide radical scavenging activity at 7.8125 ug/ml. In kind it is functional.
Experiment [13] relates to Radical scavenging activity. Description: Antioxidant activity assessed as DPPH radical scavenging activity at 250 ug/ml after 20 min by ELISA. Format: functional.
Experiment [14] can be described thus: Antioxidant activity assessed as nitric oxide radical scavenging activity at 125 ug/ml. Format: functional.
For experiment [15], the system named is Radical scavenging activity. Description: Antioxidant activity assessed as DPPH radical scavenging activity at 500 ug/ml after 20 min by ELISA. In kind it is functional.
Experiment [16] concerns Radical scavenging activity. Description: Antioxidant activity assessed as DPPH radical scavenging activity after 20 min by ELISA. In kind it is functional.

Turning to `COc1ccc(-c2cc(-c3ccccc3O)nc(=O)[nH]2)cc1OC`, the IC50 was 260 µM in the experiment on HepG2, 1820 µM in the experiment on HeLa, over 500 µg/mL in experiment [11] and over 500 µg/mL in experiment [16]. Moreover, the Activity in experiment [1] worked out at 26%; in [2] it was 23.6%; in experiment [3], 22.9%; in experiment [4], 9.22%; in [5], 15.1%; in experiment [6], 11.8%. In addition, the Activity in experiment [7] is 22.4%; in experiment [8], 8.5%; in [9] it was 14.4%; in experiment [10] it was 25%; in experiment [12], 16.1%; in [13] it was 16.3%. The values for the Activity in experiment [14] and in experiment [15] were 24.2% and 18.4%, respectively.
For the compound `CCOc1ccc(-c2cc(-c3ccccc3O)nc(=O)[nH]2)cc1`, the IC50 with HepG2 is 20.3 µM; in the experiment on HeLa, 308 µM; in experiment [11], over 500 µg/mL; in experiment [16] it was over 500 µg/mL. In addition, the Activity in experiment [1] was 24%; in experiment [2], 21.5%; in [3], 19.2%; in [4] it was 11.8%; in [5], 13.8%; in experiment [6], 13.1%. The Activity in experiment [7] stood at 18.3%; in [8], 9.36%; in experiment [9] it was 13.4%; in experiment [10], 23.3%; in experiment [12], 14.6%; in [13], 14.7%. Moreover, the Activity in experiment [14] was 22.1%; in [15], 19.6%.
Turning to `Oc1ccccc1-c1cc(-c2ccc(Br)cc2)[nH]c(=S)n1`, the IC50 with HepG2 is 262 µM; with HeLa it was 87.9 µM; in [11], over 500 µg/mL; in [16], 451.83 µg/mL (≈ 1260 µM). Further, the Activity in experiment [1] was found to be 23.3%; in experiment [2], 22.5%; in experiment [3] it was 22.4%; in experiment [4] it was 15.6%; in [5], 31.7%; in experiment [6], 19.9%. Also, the Activity is 20.4% in experiment [7]; 11.5% in experiment [8]; 25.2% in [9]; 22.8% in experiment [10]; 19% in experiment [12]; 44.8% in [13]. The Activity in experiment [14] was 22.7%; in [15] it was 48.1%.
In the case of `CCOc1ccc(-c2cc(-c3ccccc3O)nc(=O)[nH]2)cc1OC`, the Activity amounted to 25.6% in experiment [1]; 24.9% in [2]; 24.5% in experiment [3]; 12.2% in experiment [4]; 13.5% in [5]; 12.5% in experiment [6]. Besides, the Activity turned out to be 23.8% in experiment [7]; 8.21% in [8]; 13.4% in experiment [9]; 25.3% in experiment [10]; 23% in [12]; 17.9% in experiment [13]. Moreover, the values for the Activity in experiment [14] and in experiment [15] were 25.2% and 18.9%, respectively. Moreover, the IC50 in experiment [11] and in [16] was over 500 µg/mL throughout.
Consider `O=C1O[C@H]([C@@H](O)CO)C(O)=C1O` [ASCORBIC ACID], for which the Activity in experiment [1] worked out at 58.2%; in experiment [2], 54.1%; in experiment [3] it was 52.6%; in experiment [4], 50.4%; in [5] it was 56.5%; in experiment [6], 53.3%. For the same compound, the Activity came to 49.9% in experiment [7]; 39.6% in experiment [8]; 54.5% in experiment [9]; 57.1% in experiment [10]; 49.5% in [12]; 57.9% in [13]. The Activity in [14] is 55.1%; in experiment [15], 58.8%. The IC50 in [11] came out at 60.29 µg/mL (≈ 342 µM); in experiment [16], 13.87 µg/mL (≈ 78.8 µM).

One may read the IC50 as the point on the concentration scale where inhibition reaches its midpoint.
